Laboratory results from ChEMBL document CHEMBL1201862, “PubChem BioAssay data set” (2004).
Calls of active or inactive are those of the source.

Legend:
X-box-binding protein 1 = target: T1, X-box-binding protein 1 (Homo sapiens, UniProt P17861); format: functional, Cricetulus griseus;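 further: confirmatory dose-response counter-screen serving a CHOP assay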
T1 sequence (P17861 whole entry): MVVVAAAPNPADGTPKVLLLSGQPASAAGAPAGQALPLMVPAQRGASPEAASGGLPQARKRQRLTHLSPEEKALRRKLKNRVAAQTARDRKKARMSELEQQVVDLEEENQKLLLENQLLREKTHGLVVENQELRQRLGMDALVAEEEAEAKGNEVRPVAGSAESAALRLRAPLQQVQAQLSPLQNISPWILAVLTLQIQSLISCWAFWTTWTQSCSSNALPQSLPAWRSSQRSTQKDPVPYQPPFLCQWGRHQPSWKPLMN

HEK293 [1] = assay: cells; format: functional, cell-based; conditions: Homo sapiens
HEK293 [2] = assay: cells; format: functional, cell-based; conditions: Homo sapiens; remark: listed apart in the source
HEK293 [3] = assay: inhibition of NOD1-driven NF-kB reporter – cell-based, luminescence, uHTS, primary screen (AID 1578); format: functional; conditions: Homo sapiens
HEK293 [4] = assay: NOD2 signaling inhibitors in MDP-stimulated cells, cell-based, uHTS, luminescence (AID 2001); format: functional; conditions: Homo sapiens
[5] = target: Nucleotide-binding oligomerization domain-containing protein 2 (Homo sapiens, UniProt Q9HC29); assay: inhibition of NOD2-driven NF-kB reporter – cell-based, luminescence, uHTS, HEK293 (AID 1566); format: functional
Nucleotide-binding oligomerization domain-containing protein 2, sequence (Q9HC29 whole entry, the tested form may be a part): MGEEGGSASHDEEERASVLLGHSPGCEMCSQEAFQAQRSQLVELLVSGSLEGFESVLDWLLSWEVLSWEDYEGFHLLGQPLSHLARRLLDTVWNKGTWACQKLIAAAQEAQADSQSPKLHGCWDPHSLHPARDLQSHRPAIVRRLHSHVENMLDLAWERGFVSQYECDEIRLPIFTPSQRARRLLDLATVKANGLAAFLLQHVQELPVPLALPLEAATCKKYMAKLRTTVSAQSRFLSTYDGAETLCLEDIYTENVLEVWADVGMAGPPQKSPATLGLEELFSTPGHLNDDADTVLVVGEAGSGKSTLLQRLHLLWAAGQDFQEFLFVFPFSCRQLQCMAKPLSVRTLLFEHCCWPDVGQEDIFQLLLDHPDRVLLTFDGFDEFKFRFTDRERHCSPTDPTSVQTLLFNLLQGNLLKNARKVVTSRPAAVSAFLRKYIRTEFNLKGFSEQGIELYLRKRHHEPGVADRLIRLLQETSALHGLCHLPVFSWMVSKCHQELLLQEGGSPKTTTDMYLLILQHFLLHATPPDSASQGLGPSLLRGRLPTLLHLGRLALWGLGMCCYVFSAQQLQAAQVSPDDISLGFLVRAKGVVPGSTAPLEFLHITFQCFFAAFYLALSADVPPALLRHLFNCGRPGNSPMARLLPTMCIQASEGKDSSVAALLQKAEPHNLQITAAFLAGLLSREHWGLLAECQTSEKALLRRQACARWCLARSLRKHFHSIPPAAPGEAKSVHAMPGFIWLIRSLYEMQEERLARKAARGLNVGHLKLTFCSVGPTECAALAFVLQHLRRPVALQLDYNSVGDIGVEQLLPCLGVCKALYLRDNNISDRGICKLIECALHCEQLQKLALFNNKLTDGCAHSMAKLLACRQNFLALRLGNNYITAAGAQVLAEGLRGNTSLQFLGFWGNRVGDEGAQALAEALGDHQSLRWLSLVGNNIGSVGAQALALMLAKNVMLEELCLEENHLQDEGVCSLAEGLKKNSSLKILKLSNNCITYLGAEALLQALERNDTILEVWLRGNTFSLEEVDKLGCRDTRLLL

HEK293 [6] = assay: cells; format: functional, cell-based; conditions: Homo sapiens; remark: listed apart in the source
[7] = Luminescence Cell-Based Dose Retest to Confirm Inhibitors of Cancer Stem Cells. [Related pubchem assays (depositor defined):AID2717, AID2721]; format: functional; conditions: Homo sapiens
[8] = fluconazole-exposed Candida albicans growth modulators – fluorescence, retest, confirmation (AID 2467); format: functional, cell-based
[9] = NIH-3T3 fibroblast cytotoxicity, dose response, cytotoxicity control, cell-based, fluorescence, Alamar Blue, secondary assay (AID 2327); format: functional;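 further: NIH-3T3 mouse fibroblasts cultured with fluconazole at 8 µg/mL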
[10] = target: FAD-linked sulfhydryl oxidase ALR (Homo sapiens, UniProt P55789); assay: ALR-catalysed DTT oxidation blockers – biochemical, H2O2 detection, luminescence, cherry-pick, dose response (AID 493248)
FAD-linked sulfhydryl oxidase ALR, sequence (P55789 whole entry): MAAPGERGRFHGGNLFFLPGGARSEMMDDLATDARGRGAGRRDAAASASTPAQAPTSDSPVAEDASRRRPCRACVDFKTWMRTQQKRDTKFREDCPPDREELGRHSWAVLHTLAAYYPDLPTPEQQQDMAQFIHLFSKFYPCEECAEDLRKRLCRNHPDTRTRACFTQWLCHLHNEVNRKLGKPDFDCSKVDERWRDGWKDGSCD

[11] = target: Glucose-6-phosphate 1-dehydrogenase (Homo sapiens, UniProt P11413); assay: inhibition of Homo sapiens G6PD, dose series – biochemical, fluorescence, selectivity assay for P. falciparum G6PD inhibitor project, dose response (AID 504792); format: functional
Glucose-6-phosphate 1-dehydrogenase, sequence (P11413 whole entry): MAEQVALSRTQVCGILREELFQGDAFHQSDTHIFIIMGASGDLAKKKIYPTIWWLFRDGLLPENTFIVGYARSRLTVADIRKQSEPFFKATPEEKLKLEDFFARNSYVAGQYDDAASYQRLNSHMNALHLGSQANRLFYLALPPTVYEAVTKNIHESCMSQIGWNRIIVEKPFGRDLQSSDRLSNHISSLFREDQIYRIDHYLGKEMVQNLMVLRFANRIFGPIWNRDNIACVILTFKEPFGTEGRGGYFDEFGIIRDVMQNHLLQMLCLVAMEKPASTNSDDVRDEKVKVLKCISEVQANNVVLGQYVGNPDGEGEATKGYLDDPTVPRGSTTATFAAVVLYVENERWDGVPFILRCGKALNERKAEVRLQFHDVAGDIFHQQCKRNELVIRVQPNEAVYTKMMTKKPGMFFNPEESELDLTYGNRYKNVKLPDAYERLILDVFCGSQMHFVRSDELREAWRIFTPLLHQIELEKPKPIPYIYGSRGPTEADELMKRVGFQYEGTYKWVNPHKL

Vero = assay: cells; format: functional, cell-based; conditions: Chlorocebus sabaeus
Estrogen receptor beta [12] = target: T2, Estrogen receptor beta (Homo sapiens, UniProt Q92731); assay: blockers of SRC-3 recruitment to ERβ – biochemical, ELISA, streptavidin-HRP readout, orthogonal assay, confirmation (AID 1060)
T2 sequence (Q92731 whole entry): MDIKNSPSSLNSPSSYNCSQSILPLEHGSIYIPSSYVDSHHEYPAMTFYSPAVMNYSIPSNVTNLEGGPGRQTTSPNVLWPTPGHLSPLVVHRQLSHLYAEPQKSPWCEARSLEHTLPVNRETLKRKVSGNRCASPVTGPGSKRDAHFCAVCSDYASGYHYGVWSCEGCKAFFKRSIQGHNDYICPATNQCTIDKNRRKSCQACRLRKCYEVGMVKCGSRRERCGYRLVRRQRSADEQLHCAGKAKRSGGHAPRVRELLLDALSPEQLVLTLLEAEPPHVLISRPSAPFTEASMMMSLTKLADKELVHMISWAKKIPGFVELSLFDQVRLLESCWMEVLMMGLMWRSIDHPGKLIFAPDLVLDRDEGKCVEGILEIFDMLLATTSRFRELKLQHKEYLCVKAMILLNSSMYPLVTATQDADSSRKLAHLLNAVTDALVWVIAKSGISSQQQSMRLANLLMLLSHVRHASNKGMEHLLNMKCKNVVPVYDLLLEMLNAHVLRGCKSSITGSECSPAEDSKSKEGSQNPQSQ

Estrogen receptor beta [13] = target: T2, Estrogen receptor beta
[14] = target: T3, Ubiquitin-conjugating enzyme E2 N (Homo sapiens, UniProt P61088); format: functional;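 further: Dose-response confirmation in a TR-FRET assay detecting UBC13-driven polyubiquitin chain formation, inhibition measured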
T3 sequence (P61088 whole entry): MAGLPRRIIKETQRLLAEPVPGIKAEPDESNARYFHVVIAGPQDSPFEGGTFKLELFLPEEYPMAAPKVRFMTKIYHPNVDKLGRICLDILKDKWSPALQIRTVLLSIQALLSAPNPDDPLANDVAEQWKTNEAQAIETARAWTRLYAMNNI

[15] = blockers of HIV-1 ZM109 envelope-driven cell-cell fusion – HeLa effector, CEM target cells, luciferase, cherry-pick, dose response (AID 652058); format: functional, cell-based;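 further: luciferase signal from HIV-1 Env mediated cell-cell fusion of effector and target cells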
[16] = HIV-1 AD8 envelope cell-cell fusion blockers – cherry-pick, dose response (AID 652062); format: functional, cell-based;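 further: luciferase signal from cell-cell fusion driven by HIV-1 clade B AD8 Env; potency is for inhibitors of fusion seen as a drop in luminescence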
[17] = blockers of HIV-1 envelope-mediated cell-cell fusion – cherry-pick, dose response (AID 652057); format: functional, cell-based
[18] = off-target signal loss in HeLa-CEM21 co-culture – HeLa F-luc CTL cells, cherry-picked, counter-screen for HIV-1 Env fusion inhibitor project, dose response (AID 652040); format: functional, cell-based;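 further: potency for signal decrease marking cytotoxic or nonspecific inhibition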
[19] = OVCAR8 cell viability loss – plate reader, dry powder samples, PAX8 project, dose response (AID 743197); format: functional, cell-based; conditions: OVCAR-8
Paired box protein Pax-8 = Paired box protein Pax-8 (Homo sapiens, UniProt Q06710); assay: PAX8 transcriptional activity inhibition in RMG-I – RMG-I cells, luciferase, cherry-pick, dose response (AID 687027); format: functional, cell-based;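 further: luciferase reporter driven by Pax8 target thyroperoxidase promoter measured by SteadyGlo luminescence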
Paired box protein Pax-8, sequence (Q06710 whole entry): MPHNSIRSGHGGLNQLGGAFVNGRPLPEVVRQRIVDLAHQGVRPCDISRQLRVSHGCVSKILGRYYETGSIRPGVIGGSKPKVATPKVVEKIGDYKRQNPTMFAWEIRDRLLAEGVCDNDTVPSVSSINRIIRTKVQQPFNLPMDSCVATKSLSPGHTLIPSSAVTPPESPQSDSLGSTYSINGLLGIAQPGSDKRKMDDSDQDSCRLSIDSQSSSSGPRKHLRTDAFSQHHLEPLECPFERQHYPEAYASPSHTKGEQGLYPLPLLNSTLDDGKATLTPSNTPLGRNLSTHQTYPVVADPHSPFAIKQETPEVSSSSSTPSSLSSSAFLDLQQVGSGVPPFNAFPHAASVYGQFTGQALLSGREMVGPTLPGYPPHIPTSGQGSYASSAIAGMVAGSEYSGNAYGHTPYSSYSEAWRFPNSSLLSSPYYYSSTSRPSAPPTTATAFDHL

P388 = assay: cells; format: functional; conditions: Mus musculus
SN12K1 = assay: cells; format: functional; conditions: Homo sapiens
P388/ADR = assay: cells; format: functional; conditions: Mus musculus
H4 = assay: Luminescence Cell-Based Dose Response HTS to Identify Activators of 5'UTR Stem-Loop Driven Prion Protein mRNA Translation in H4 Neuroglioblastoma Cells. [Related pubchem assays: 1829 (Project Summary), 1814 (Primary HTS)]; format: functional; conditions: Homo sapiens

Structure (SMILES): CCC1CCc2c(sc(NC(=O)c3ccoc3C)c2C(N)=O)C1 (stereo not given)
- Absolute IC50 (XBP1) (X-box-binding protein 1): 10 µM

Structure (SMILES): O=C(COc1ccc(Cl)cc1)Nc1nc(-c2ccc(S(=O)(=O)N3CCOCC3)cc2)cs1
- IC50 (HEK293 [1]): 3.9 µM (active)
- IC50 (HEK293 [2]): > 20 µM (inactive)
- EC50 (HEK293 [3]): 10.3 µM (active)
- IC50 (HEK293 [4]): 4.96 µM (active)
- EC50 [5]: 17 µM (active)
- IC50 (HEK293 [6]): > 20 µM (inactive)

Structure (SMILES): CC1(C)CN(c2ccccc2)N(C(=O)c2ccc(C#N)cc2)C1=O
- AC50 [7]: 3.56 µM (active)
- EC50 [8]: > 38 µM (not active)
- EC50 [9]: 4.88 µM (active)
- AC50 [10]: 1.72 µM (active)
- IC50 [11]: > 80 µM (inactive)

Structure (SMILES): CCOc1ccccc1Nc1nnc(SC(C)C(=O)Nc2nc(-c3ccccc3)cs2)s1 (stereo not given)
- IC50 (Vero): > 12.5 µM (active)

Structure (SMILES): O=C(Nc1ccc2c(c1)OCO2)c1cccc2c1C(=O)N(Cc1cccnc1)C2
- IC50 (Estrogen receptor beta [12]): 3.13 µM (not active)
- IC50 (Estrogen receptor beta [13]): > 50 µM (not active)

Structure (SMILES): CC1CCCC(C)N1CCCNC(=O)C1CCCN(c2ncnc3c2nc2n3CCCCC2)C1 (stereo not given)
- IC50 [14]: > 20 µM (inactive)

Structure (SMILES): CC(C)CN(C(=O)c1ccc(S(=O)(=O)N2CCCCC2)cc1)C1CCS(=O)(=O)C1 (stereo not given)
- AC50 [15]: 6.21 µM (active)

Structure (SMILES): C=C1CCN([C@@H](Cc2ccccc2)C(=O)NCCC(C)C)S(=O)(=O)c2ccccc21
- AC50 [16]: 24.1 µM (active)
- AC50 [15]: 3.56 µM (active)
- AC50 [17]: 3.91 µM (active)
- AC50 [18]: 6.85 µM (active)

Structure (SMILES): C[C@@H]1CCCCO[C@@H](CN(C)C(=O)Nc2ccc(C(F)(F)F)cc2)[C@H](C)CN([C@H](C)CO)C(=O)c2cc(NS(=O)(=O)c3ccccc3)ccc2O1
- AC50 [19]: > 70 µM (inactive)
- AC50 (Paired box protein Pax-8): 6.96 µM (active)

Structure (SMILES): Cc1ccc(Cc2cncc(O)c2)cc1S(=O)(=O)O
- IC50 (Estrogen receptor beta [12]): 0.353 µM (not active)
- IC50 (Estrogen receptor beta [13]): 13.5 µM (active)

Structure (SMILES): Nc1ncn([C@H]2C[C@H](O)[C@@H](CO)O2)c(=O)n1 [DECITABINE]
- GI50 (P388): 0.051 µM (active)
- GI50 (SN12K1): > 375 µM (inactive)
- AC50 [18]: > 70 µM (inactive)
- GI50 (P388/ADR): 0.0959 µM (active)
- EC50 (H4): 94.9 µM (active)
